The values below are quoted from earlier work in patent publication US20050245613A1, “Use of gaba-b receptor positive modulators in gastro-intestinal disorders” (priority 2002, published 2005).

For series [1], the system named is vagal afferent and efferent fibers.
The subject of series [2] is ferrets.
Series [3] concerns dogs.
Series [4] has as its system GERD patients.
For series [5], the system named is healthy subjects.
Series [6] relates to GERD patients. The settings on record: long-term recording of esophageal pH.

As for `NCC(CC(=O)O)c1ccc(Cl)cc1` (stereo not drawn) [Baclofen], the “sensitivity of vagal afferent and efferent fibers” value in series [1] was “reduce the sensitivity of vagal afferent and efferent fibers”. Further, the “frequency of TLESR” value in series [2], in series [3], in series [4] and in series [5] was “reduces the frequency of TLESR” throughout. In addition, the esophageal acid exposure result in series [6] was “significant reduction in esophageal acid exposure”.
